Data as given in PubChem BioAssay (NCI).
Several values for one entry are separate records, joined by “and”; a condition that tells them apart may be missing. Identical values can stand only once.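 All cell lines were grown in 96-well plates and treated with compound for 48 hours. GI50 = concentration required for 50% inhibition of growth. TGI denotes the concentration required for complete inhibition of growth.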

Key:
Experiment in all cases: NCI anticancer screen, dose series, 48 h
K-562 leukemia = system: K-562 leukemia
NCI-H23 lung = system: NCI-H23 lung
DU-145 prostate = system: DU-145 prostate
MOLT-4 leukemia = system: MOLT-4 leukemia
COLO 205 colon = system: COLO 205 colon
BT-549 breast = system: BT-549 breast
HCT-15 colon = system: HCT-15 colon
HOP-92 NSCLC = system: HOP-92 NSCLC
UACC-257 melanoma = system: UACC-257 melanoma
PC-3 prostate = system: PC-3 prostate

Row | Structure (SMILES) | GI50 (K-562 leukemia) | TGI (K-562 leukemia) [µM] | GI50 (NCI-H23 lung) | TGI (NCI-H23 lung) | GI50 (DU-145 prostate) | TGI (DU-145 prostate) | GI50 (MOLT-4 leukemia) | TGI (MOLT-4 leukemia) | GI50 (COLO 205 colon) | TGI (COLO 205 colon) | GI50 (BT-549 breast) [µM] | TGI (BT-549 breast) [µM] | GI50 (HCT-15 colon) | TGI (HCT-15 colon) | GI50 (HOP-92 NSCLC) [nM] | TGI (HOP-92 NSCLC) [µM] | GI50 (UACC-257 melanoma) | TGI (UACC-257 melanoma) | GI50 (PC-3 prostate) [µM] | TGI (PC-3 prostate)
1 | COc1ccc2c(Cl)cc(NC(=O)Nc3c(C)cccc3C)nc2c1 | 60.7 µM | > 100 | 76.9 µM | > 100 µM | 28.4 µM | > 100 µM | 45.9 µM | > 100 µM | 46 µM | > 100 µM | 36 | > 100 | 27.3 µM | > 100 µM | 4260 | 27.4 | 20 µM | > 100 µM | 24.5 | > 100 µM
2 | COC(=O)C(CBr)CBr |  | 4.29 |  | 19.5 µM |  | 31.9 µM |  | 16.4 µM |  | 3 µM |  | 6.58 |  | 3.75 µM |  | 3.63 |  | 12.5 µM |  | 23 µM
3 | C/C(=N\NC(=S)N1CC2CCC(CC2)C1)c1cccc(C)n1 | < 0.0001 µM |  |  | 19.4 µM | 0.378 µM | 7.1 µM | < 0.0001 µM | 0.00764 µM | 0.000385 µM | 11.1 µM |  | 10.3 | 0.307 µM | 17.4 µM |  | 16.4 | 0.68 µM | 9.8 µM |  | 15.6 µM
4 | NC(N)=Nc1nc2ccc([N+](=O)[O-])cc2[nH]1 |  | > 100 |  | > 100 µM |  | > 100 µM |  | > 100 µM |  | > 100 µM |  | > 100 |  | > 100 µM |  | > 100 |  | > 100 µM |  | > 100 µM
5 | N#Cc1c(N)nc(N)nc1N[C@H](c1nc2c(F)ccc(Cl)c2c(=O)n1-c1cccnc1)C1CC1 | 31.8 µM | > 100 | 21.8 µM | > 100 µM | 11 µM | > 100 µM | 3.33 µM | 28.8 µM | 8.74 µM | 25.8 µM | 0.761 | 17.3 | 14.9 µM | 56.7 µM | 549 | 7.59 | 8.18 µM | > 100 µM | 2.3 | 29.3 µM
6 | CCCCC(=O)N/N=C/c1c(O)ccc2ccccc12 | 1.89 µM | > 100 | 4.14 µM | > 100 µM | 2.7 µM | > 100 µM | 0.349 µM |  | 2.61 µM | > 27.6 µM | 0.537 | 6.6 | 0.532 µM | > 100 µM | 2010 | > 84.5 | 3 µM | > 24.6 µM | 0.953 | > 57.5 µM
7 | CCc1cc2ncc(CN3CCN(c4ccc(C(=O)NC)nc4)CC3)cc2[nH]c1=O | 50 µM | > 100 | 53.5 µM | > 100 µM | > 100 µM | > 100 µM | 46 µM | > 100 µM | > 100 µM | > 100 µM | 25.9 | > 100 | 65.4 µM | > 100 µM | 12300 | > 100 | 55.1 µM | > 100 µM | 51.7 | > 100 µM
8 | Cc1[nH]c(-c2nc3ccccc3[nH]2)c(C)c1C(=O)NC(C)C1CCCCC1 (configuration not stated) | 3.45 µM | > 100 | 12.6 µM | 31.5 µM | 14.6 µM | 28.2 µM | 4.95 µM | 28.1 µM | 18.3 µM | 58 µM | 10.7 | 23.2 | 4.77 µM | 19.6 µM | 10200 | 25.3 | 13.2 µM | 33.3 µM | 12 | 28.4 µM
9 | Oc1ccc(CCNCc2cc3c(cc2Br)OCO3)cc1 |  | > 100 |  | > 100 µM |  | > 100 µM |  | > 100 µM |  | 40.8 µM |  | > 100 |  | > 100 µM |  | > 100 |  | > 100 µM |  | > 100 µM
10 | O=c1c(NO)c([N+](=O)[O-])cnn1-c1ccccc1 |  | 1.86 |  | 13.2 µM |  | 27.6 µM |  | 10.5 µM |  | 9.85 µM |  | 2.93 |  | 11.6 µM |  | 13.9 |  | 13.4 µM |  | 2.97 µM
11 | O=C1C(=O)c2ccccc2C(O)=C1CCCc1ccc(C2CCCCCC2)cc1 | 0.447 µM | > 34.8 | 0.649 µM | 15.8 µM | 0.72 µM | 34.3 µM | 0.618 µM | > 32.1 µM | 4.9 µM | 20 µM | 1.14 | 19.5 | 0.539 µM | > 85.9 µM | 3010 | 24.9 | 0.662 µM | > 23.3 µM | 0.542 | > 42.4 µM
12 | CN1CCN(c2nc(NCCCNc3ccnc4cc(Cl)ccc34)c3ccccc3n2)CC1 | 2.64 µM | 10.9 | 10.6 µM | 24 µM | 6.11 µM | 18.4 µM | 3.25 µM | 15.2 µM | 1.86 µM | 4.51 µM | 4.4 | 16.7 | 5.33 µM | 18.8 µM | 2070 | 6.43 | 2.02 µM | 3.83 µM | 6.14 | 20.7 µM
13 | CCCCNC(=O)c1cc(NCc2cc(O)ccc2O)ccc1O | 16.6 µM | 75.2 | 17.1 µM | 40.5 µM | 15.9 µM | 29.6 µM | 4.02 µM | 44.4 µM | 17 µM | 36.9 µM | 3.24 | 13.5 | 10.7 µM | 32.4 µM | 6810 | 21.7 | 16.4 µM | 32.4 µM | 10.3 | 27.4 µM
14 | COc1cc(N2CCN(C(C)C)CC2)ccc1Nc1nc(Nc2cccc(F)c2C(=O)O)c2cc[nH]c2n1 | > 25 µM | > 25 | > 25 µM | > 25 µM | > 25 µM | > 25 µM | > 25 µM | > 25 µM | > 25 µM | > 25 µM | > 25 | > 25 | > 25 µM | > 25 µM | 1060 | > 25 | > 25 µM | > 25 µM | > 25 | > 25 µM
15 | COc1cc2ncnc(Nc3ccc4c(cnn4Cc4ccccc4)c3)c2cc1OC | 7.27 µM | > 19.7 | > 25 µM | > 25 µM | > 25 µM | > 25 µM | 13.5 µM | > 25 µM | > 25 µM | > 25 µM | 16.5 | > 25 | > 17.4 µM | > 25 µM | 434 | > 25 | > 25 µM | > 25 µM | > 18.2 | > 25 µM
16 | C/C=C/[C@H]1O[C@@H]2C(=C[C@H]1O)C(=O)O[C@H]2C | 7.55 µM | > 33.8 | 16.4 µM | 44.2 µM | 5.76 µM | 21.4 µM | 2.77 µM | 10.5 µM | 4.02 µM | > 32.1 µM | 10.5 | 22.5 | 15.7 µM | 34.7 µM | 1550 | 22.1 | 21.7 µM | 43.7 µM | 14.8 | 30.8 µM
17 | CCOC(=O)c1oc2ccc([N+](=O)[O-])c3c2c1CCC3 |  | > 100 |  | > 100 µM |  | > 100 µM |  | > 100 µM |  | > 100 µM |  | > 93 |  | > 100 µM |  | 71 |  | > 100 µM |  | > 100 µM
18 | C[n+]1c(-c2ccc(/C=N/NC(=O)c3ccc(C(=O)N/N=C/c4ccc(-c5cn6ccccc6[n+]5C)cc4)cc3)cc2)cn2ccccc21 | 132 µM | 259 | 297 µM | 717 µM | 206 µM | 698 µM | 135 µM | 292 µM | > 1000 µM | > 1000 µM | 874 | > 1000 | > 1000 µM | > 1000 µM | 198000 | 362 | 182 µM | 97.5 µM and 322 µM | 169 | 306 µM
19 | O=C(O)CCc1c2ccc(=O)c(O)c-2oc2c(O)c(O)ccc12 |  | 55.2 |  | > 100 µM |  | > 100 µM |  | 65.7 µM |  | > 100 µM |  | > 100 |  | > 100 µM |  | > 100 |  | > 100 µM |  | > 100 µM
20 | CC(C)n1nc(-c2ccc3oc(N)nc3c2)c2c(N)ncnc21 | 0.0431 µM and 0.0376 µM | > 100 | 0.0268 µM and 0.0176 µM | 8.16 µM and 2.39 µM | 0.0203 µM and 0.0208 µM | 11.9 µM and 6.63 µM | 0.0325 µM and 0.0438 µM | 5.9 µM and 9.49 µM | < 0.01 µM and 0.0144 µM | 2.21 µM and 1.88 µM | < 0.01 |  | 0.0126 µM and 0.0164 µM | 11.3 µM and > 35.2 µM | < 10 | < 0.01 | < 0.0123 µM and 0.0137 µM | 0.145 µM and 0.121 µM | < 0.01 | 3.94 µM and 2.57 µM
21 | CN(C)CC(C(=O)Cc1ccccc1)c1ccccc1 (configuration not stated) | 1.62 µM | > 100 | 12.2 µM | 30.5 µM | 1.73 µM | 4.72 µM | 3.02 µM | > 100 µM | 2.3 µM | 5.04 µM | 3.18 | 8.74 | 1.76 µM | 3.95 µM | 2780 | 7.5 | 1.79 µM | 4.25 µM | 7.53 | 22.4 µM
22 | N=C(N)c1ccc(NCCOCCNc2ccc(C(=N)N)cc2)cc1 | 21.3 µM | > 100 | 6.91 µM | > 100 µM | 27.4 µM | > 100 µM | > 100 µM | > 100 µM | 14.9 µM | 39.5 µM | 34.9 | > 100 | 30.2 µM | > 100 µM | 15400 | 59.8 | > 100 µM | > 100 µM | 50.7 | > 100 µM
23 | Oc1cccc(/C=N/Nc2nnc(N/N=C/c3cccc(O)c3)c3ccccc23)c1 |  | 47.6 |  | 48.6 µM |  | 66 µM |  | 6.43 µM |  | > 100 µM |  | 44.8 |  | 39 µM |  | 76.1 |  | > 100 µM |  | 44.4 µM
24 | C/C(=N\N=C(\[Se])N(C)C)c1ccccn1 |  | 23.6 |  | 11 µM |  | 18 µM |  | 7.8 µM |  | 2.05 µM |  | 21.4 |  | 15.9 µM |  | 13.1 |  | 0.162 µM |  | 13.9 µM
25 | Nc1nc(N)c2c(n1)NC(c1ccccc1)C1CCc3ccccc3C1=N2 (configuration not stated) | 3.42 µM |  | 4.56 µM | 19.4 µM | 4.38 µM | 17.1 µM | 2.7 µM | 14.7 µM | 3.07 µM | 10.9 µM | 5.42 | 19.7 | 4.06 µM | 17.1 µM | 2550 | 10.8 | 3.72 µM | 15 µM | 2.82 | 47.7 µM
